Assay [1] concerns pregnancy maintenance (gestagenic action). The assay is described as follows: pregnancy maintenance test in mice. It is filed as in vivo. An excerpt: Another example is the compound of general formula I—in which R1 and R2 in each case represent a hydrogen atom, R3 represents an α-position hydrogen atom, R4 stands for a β-position hydroxy group, and the cyclopropane ring is in α-position—17β-hydroxy-14,α,15α-methylenestr-4-en-3-one (J 1129), which in the same test has an approximately 50-fold stronger gestagenic action in comparison to the reference substance norethisterone acetate.

In assay [2] the target is T1, progesterone receptor of the rabbit uterus (Oryctolagus cuniculus, UniProt P06186).
T1 construct: progesterone receptor of the rabbit uterus; from tissue; host or cells: rabbit uterus
T1 sequence (P06186 1-930): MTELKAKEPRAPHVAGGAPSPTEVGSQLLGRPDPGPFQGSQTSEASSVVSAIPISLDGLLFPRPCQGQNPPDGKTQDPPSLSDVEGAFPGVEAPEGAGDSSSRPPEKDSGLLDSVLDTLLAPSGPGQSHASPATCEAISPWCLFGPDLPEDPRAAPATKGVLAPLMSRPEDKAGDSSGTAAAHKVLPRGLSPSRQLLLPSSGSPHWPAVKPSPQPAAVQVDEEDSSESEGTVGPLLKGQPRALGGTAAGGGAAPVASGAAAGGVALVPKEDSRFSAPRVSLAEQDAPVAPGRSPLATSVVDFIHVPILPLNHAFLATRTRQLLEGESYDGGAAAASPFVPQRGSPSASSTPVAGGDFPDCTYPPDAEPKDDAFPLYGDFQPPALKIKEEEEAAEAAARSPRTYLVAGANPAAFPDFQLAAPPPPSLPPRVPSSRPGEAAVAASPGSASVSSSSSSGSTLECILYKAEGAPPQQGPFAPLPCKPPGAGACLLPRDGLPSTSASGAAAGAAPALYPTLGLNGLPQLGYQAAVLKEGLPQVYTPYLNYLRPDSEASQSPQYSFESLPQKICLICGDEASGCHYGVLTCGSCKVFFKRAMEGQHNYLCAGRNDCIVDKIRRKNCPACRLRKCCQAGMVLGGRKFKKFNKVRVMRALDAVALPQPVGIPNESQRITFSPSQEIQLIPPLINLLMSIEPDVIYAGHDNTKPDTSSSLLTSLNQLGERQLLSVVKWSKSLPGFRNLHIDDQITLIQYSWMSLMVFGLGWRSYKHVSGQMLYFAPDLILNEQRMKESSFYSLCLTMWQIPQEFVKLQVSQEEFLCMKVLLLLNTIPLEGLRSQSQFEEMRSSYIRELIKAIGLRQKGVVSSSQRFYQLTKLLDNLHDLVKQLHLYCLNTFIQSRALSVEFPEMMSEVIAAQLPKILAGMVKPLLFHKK
The assay is described as follows: binding to the progesterone receptor of the rabbit uterus (reference substance: progesterone). An excerpt: Another example is the compound of general formula I—in which R1 and R2 in each case represent a hydrogen atom, R3 means an α-position chloromethyl group, R4 stands for a β-position hydroxy group, and the cyclopropane ring is in β-position—17α-chloromethyl-17β-hydroxy-14β,15β-methylenestr-4-en-3-one (Code J 1364), which binds with 710±80% to the progesterone receptor of the rabbit uterus (reference substance: progesterone).

Assay [3] concerns the target T2, androgen receptor of the rat prostate (Rattus norvegicus, UniProt P15207).
T2 construct: androgen receptor of the rat prostate; from tissue; host or cells: rat prostate
T2 sequence (P15207 1-902): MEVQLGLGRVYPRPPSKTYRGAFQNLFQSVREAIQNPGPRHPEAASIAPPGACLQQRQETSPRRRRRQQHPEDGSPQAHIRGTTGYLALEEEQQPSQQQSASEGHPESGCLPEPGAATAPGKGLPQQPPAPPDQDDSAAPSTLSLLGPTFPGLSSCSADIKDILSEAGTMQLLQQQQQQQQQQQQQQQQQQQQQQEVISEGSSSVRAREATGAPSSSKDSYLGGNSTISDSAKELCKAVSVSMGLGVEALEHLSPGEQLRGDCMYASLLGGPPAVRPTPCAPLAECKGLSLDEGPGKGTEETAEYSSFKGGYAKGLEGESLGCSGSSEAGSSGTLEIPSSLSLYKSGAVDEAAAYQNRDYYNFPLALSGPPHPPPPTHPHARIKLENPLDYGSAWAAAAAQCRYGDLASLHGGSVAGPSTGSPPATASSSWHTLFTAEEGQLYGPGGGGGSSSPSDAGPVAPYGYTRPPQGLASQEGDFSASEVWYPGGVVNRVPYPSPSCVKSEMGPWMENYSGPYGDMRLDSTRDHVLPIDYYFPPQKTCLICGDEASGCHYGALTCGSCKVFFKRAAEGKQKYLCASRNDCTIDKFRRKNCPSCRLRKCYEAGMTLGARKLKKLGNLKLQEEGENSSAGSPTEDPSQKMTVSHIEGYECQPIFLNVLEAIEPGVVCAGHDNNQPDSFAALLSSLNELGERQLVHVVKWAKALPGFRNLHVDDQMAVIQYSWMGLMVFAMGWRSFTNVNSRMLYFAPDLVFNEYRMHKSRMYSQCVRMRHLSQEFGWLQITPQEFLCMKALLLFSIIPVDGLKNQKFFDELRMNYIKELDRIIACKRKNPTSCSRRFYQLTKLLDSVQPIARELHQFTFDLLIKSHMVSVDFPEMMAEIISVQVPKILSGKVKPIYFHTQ
The assay is described as follows: binding to the androgen receptor of the rat prostate (reference substance: R 1881).

SMILES strings stand for the structures.

As for `C[C@]12CC[C@H]3[C@@H](CCC4=CC(=O)CC[C@@H]43)[C@@]13C[C@H]3C[C@@H]2O` [J 1129, 17β-Hydroxy-14α,15α-methylenestr-4-en-3-one], the “gestagenic action in comparison to the reference substance norethisterone acetate” value in assay [1] (pregnancy maintenance test, stronger than norethisterone acetate) is “approximately 50 fold”. Moreover, the “binding to the progesterone receptor” value in assay [2] is 42±5%. Moreover, the “binding to the androgen receptor” value in assay [3] (reference substance: 17β-hydroxy-17α-methyl-estra-4,9,11-trien-3-one (R 1881)) is 59±7%.
As for `COC[C@]1(O)C[C@H]2C[C@]23[C@@H]2CCC4=CC(=O)CC[C@@H]4[C@H]2CC[C@]13C` [J 1222, 17β-Hydroxy-17α-(methoxymethyl)-14β,15β-methylenestr-4-en-3-one], the “effectiveness in the pregnancy maintenance test compared with norethisterone acetate” value in assay [1] (reference gestagen norethisterone acetate) is listed as “just as effective”. The “binding to the progesterone receptor” value in assay [2] is 52±4%. Moreover, the “affinity to the androgen receptor (in words)” value in assay [3] (reference substance: R 1881) is on record as “virtually no affinity”.
With `CC12CCC3C4CCC(=O)C=C4CCC3C13CC3CC2(O)CCl` (stereo not drawn) [J 1364, 17α-Chloromethyl-17β-hydroxy-14β,15β-methylenestr-4-en-3-one], in assay [2], the “binding to the progesterone receptor” value is given as 710±80%.

These data come from patent US6388109B1, “14,15-cyclopropano steroids of the 19-norandrostane series, method for the production thereof and pharmaceutical preparations containing said compounds” (Jenapharm GmbH & Co. KG, priority 1998, dated 2002).
